Test results from PubChem BioAssay AID2252 (Southern Research Specialized Biocontainment Screening …, 2010).
Values joined by “and” are separate entries in the source; they are usually repeats but may differ in a detail not shown here. Identical values can stand only once.

Tested on: THP-1 viability, CellTiter-Glo luminescence, 72 h
Assay: PubChem AID 2252

Row | Compound | EC50
1 | C=C1c2c(Cl)ccc(O)c2C(O)=C2C(=O)[C@]3(O)C(O)=C(C(N)=O)C(=O)[C@@H](N(C)C)[C@@H]3[C@@H](O)C12 (some centres undefined) | 13.4 µM
2 | CCCCn1c(NS(=O)(=O)c2ccccc2)c(C(=O)OCC)c2nc3ccccc3nc21 | 20.1 µM
3 | O=C(N/N=C/c1cc(Cl)cc(Cl)c1O)c1ccncc1 | 5.38 µM
4 | O=C(C[n+]1cc(Br)cc2ccccc21)c1ccc(Cl)cc1 | 44 µM
5 | CN1CC=C(/C=C/c2ccc(-c3ccccc3)cc2)CC1 | 10.5 µM
6 | Oc1ccc(/C=N/N=C(c2ccccc2)c2ccccc2)c(O)c1O | 7.47 µM
7 | Cc1cc(C)c(OCCCCNCc2ccccc2)c(Cl)c1 | 12.2 µM
8 | c1ccc2c(c1)CCc1ccccc1C2=C1CCNCC1 | 25.2 µM
9 | CNC[C@H](CC1CCCCC1)NC[C@H](Cc1ccccc1)NCCC12CC3CC(CC(C3)C1)C2 | 3.49 µM
10 | CNc1ccc(SC#N)cc1 | 33.7 µM
11 | O=C(CNC(=O)c1ccccc1)N/N=C/c1ccc([N+](=O)[O-])s1 | 16.9 µM
12 | CC(C)[C@@H](C(=O)NC1CCCC1)N1C(=O)N2CCc3c([nH]c4ccccc34)[C@@]2(C)C1=O | 45.5 µM
13 | COc1ccccc1C(C[N+](=O)[O-])c1c(N)n(C)c(=O)n(C)c1=O (centres undefined) | 8.91 µM
14 | O=C(Nc1nnc(C2COc3ccccc3O2)o1)c1ccc(F)cc1 (centres undefined) | 16.8 µM
15 | O=C1C(=O)c2ccccc2-c2ccccc21 | 2.22 µM
16 | COc1c(N2CCN(C(=S)NCc3ccccc3)C(C)C2)c(F)cc2c(=O)c(C(=O)O)cn(C3CC3)c12 (centres undefined) | 17.9 µM
17 | O=Nc1ccc(O)c2ncccc12 | 2.07 µM
18 | Cc1ccc(-c2csc(N=C(N)N)n2)c(C)c1 | 26.9 µM
19 | N=c1n(CCN2CCCCC2)c2ccccc2n1CC(O)COc1ccccc1 (centres undefined) | 28.7 µM
20 | CN(C)CCCN(C(=O)c1cc2cc([N+](=O)[O-])ccc2s1)c1nc2cc3c(cc2s1)OCCO3 | 3.04 µM
21 | O=C(C[n+]1cn(C(F)F)c2ccccc21)c1ccc(Br)cc1 | 35.8 µM
22 | c1ccc(CN2CCN(c3nc(NCc4ccco4)c4ccccc4n3)CC2)cc1 | 15.3 µM

Row | Compound | EC50
23 | CCCCn1c(NS(=O)(=O)c2ccccc2)c(S(=O)(=O)c2ccc(C)cc2)c2nc3ccccc3nc21 | 12 µM
24 | OC(CN1CCCCC1)Cn1c2ccccc2c2cc(Br)ccc21 (centres undefined) | 17.5 µM
25 | CCC(O)(CC)C(=O)N/N=C/c1cc(Br)cc(Br)c1O | 15.4 µM
26 | OCCN1CCN(C2CCC(c3ccc(F)cc3)c3ccc(F)cc32)CC1 (centres undefined) | 9.55 µM
27 | CN1CCN(CCCN2c3ccccc3Sc3ccc(Cl)cc32)CC1 | 14.7 µM and 10.2 µM
28 | O=C(Nc1cccc(NC(=O)c2ccccc2Cl)c1)c1ccc([N+](=O)[O-])o1 | 2.11 µM
29 | COc1ccc(C(=O)NC(=S)NNC(=O)CCc2ccccc2)cc1 | 6.09 µM
30 | Cn1ncnc2c(=O)n(C)c(=O)nc1-2 | 1.38 µM
31 | CCN(CC)CCn1c(=N)n(CC(O)COc2cccc(C)c2)c2ccccc21 (centres undefined) | 16.2 µM
32 | CN(C)CCCNC(=S)NCC(c1ccc(Cl)cc1Cl)c1c[nH]c2ccccc12 (centres undefined) | 3.66 µM
33 | C[C@H]1c2cccc(O)c2C(O)=C2C(=O)[C@]3(O)C(O)=C(C(N)=O)C(=O)[C@@H](N(C)C)[C@@H]3[C@@H](O)[C@@H]21 | 29 µM
34 | Cc1ccc2nc(N(CCCN(C)C)C(=O)c3sc4ccccc4c3Cl)sc2c1 | 28.1 µM
35 | NC1=NC[C@H](Cc2ccc(O)cc2)N1CCC12CC3CC(CC(C3)C1)C2 | 13.2 µM
36 | Nc1nc(F)nc2c1ncn2[C@@H]1O[C@H](CO)[C@@H](O)[C@H]1O | 0.35 µM
37 | COc1cccc(/C=N/NC(=O)CSCC(=O)Nc2ccccc2)c1O | 5.26 µM
38 | Cc1cccn2c(=O)c(C=O)c(Cl)nc12 | 26.8 µM
39 | Nc1nc2ccccc2n1CCOc1ccccc1Cl | 16.6 µM
40 | Clc1ccc(CN2CCc3c([nH]c4ccccc34)C2)cc1Cl | 8.16 µM
41 | O=C1c2ccccc2NC(c2ccc(-c3ccc(Br)cc3)o2)N1O (centres undefined) | 10.6 µM
42 | CC(C(=O)NC1C=CS(=O)(=O)C1)N1C(=O)/C(=C/c2ccc(Cl)cc2)SC1=S (centres undefined) | 25.7 µM
43 | CCOC(=O)c1c(C)sc2c1N(C(C)=O)c1cc(Cl)ccc1S2 | 44.1 µM
44 | CC(C)NC(=O)CN1CCN(Cc2nc(C(c3ccccc3)c3ccccc3)no2)CC1 | < 0.1 µM
